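Each compound was tested at five concentrations against cells in 96-well plates for 48 hours. GI50 = concentration required for 50% inhibition of growth. At the TGI there is no net growth.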
Assays:
Assay in all cases: NCI-60 cell line screen, 48 h
A498 renal = system: A498 renal
COLO 205 colon = system: COLO 205 colon
EKVX NSCLC = system: EKVX NSCLC
HCT-116 colon = system: HCT-116 colon
HT29 colon = system: HT29 colon
LOX IMVI melanoma = system: LOX IMVI melanoma
OVCAR-5 ovarian = system: OVCAR-5 ovarian
SK-MEL-28 melanoma = system: SK-MEL-28 melanoma
SK-MEL-5 melanoma = system: SK-MEL-5 melanoma
UACC-62 melanoma = system: UACC-62 melanoma

Row | Structure (SMILES) | GI50 (A498 renal) | TGI (A498 renal) | GI50 (COLO 205 colon) | TGI (COLO 205 colon) | GI50 (EKVX NSCLC) | TGI (EKVX NSCLC) | GI50 (HCT-116 colon) | TGI (HCT-116 colon) | GI50 (HT29 colon) | TGI (HT29 colon) | GI50 (LOX IMVI melanoma) | TGI (LOX IMVI melanoma) | GI50 (OVCAR-5 ovarian) | TGI (OVCAR-5 ovarian) | GI50 (SK-MEL-28 melanoma) | TGI (SK-MEL-28 melanoma) | GI50 (SK-MEL-5 melanoma) | TGI (SK-MEL-5 melanoma) | GI50 (UACC-62 melanoma) | TGI (UACC-62 melanoma)
1 | CCOc1ccc2nc(S/C(=C/C=C(C#N)C#N)c3ccc(C)cc3)sc2c1 | 42.3 µM | > 100 µM | 25.8 µM | > 100 µM | > 100 µM | > 100 µM | 17.3 µM | 31.6 µM | 4.71 µM | > 100 µM | 9.87 µM | 23.9 µM | 57.5 µM | > 100 µM | 31.1 µM | > 100 µM | 22.1 µM | 57.4 µM | 22 µM | 54.1 µM
2 | COC1C(O)=C2C(=O)O/C(C)=C/C=C/C=C/C=C\CC(c3ccccc3)NC(=O)\C=C/C=C\C=C\C=C\[C@@]2(C)[C@@H]1O (stereo not given in full) | – | 0.318 µM | – | 0.0564 µM | – | 0.279 µM | – | 0.0198 µM | – | 0.0531 µM | – | 1.09 µM | – | 0.413 µM | – | 0.0518 µM | – | 0.199 µM | – | 0.551 µM
3 | Cc1ccc(/C=C/c2c(C(=O)/C=C/c3ccc(C(F)(F)F)cc3)c(C)nc3ccccc23)cc1 | 1.77 µM | 3.24 µM | 2.21 µM | 5.29 µM | 1.53 µM | 3.36 µM | 0.496 µM | 2.09 µM | 0.674 µM | 4.57 µM | 1.12 µM | 2.33 µM | 1.84 µM | 4.25 µM | 1.93 µM | 3.63 µM | 1.54 µM | 2.87 µM | 1.55 µM | 3.02 µM
4 | NS(=O)(=O)c1ccc(N(/C=C/C(=O)C(F)(F)F)CC(=O)c2ccc(Cl)cc2)cc1 | > 100 µM | > 100 µM | 32.2 µM | > 100 µM | 54.2 µM | > 100 µM | 18.7 µM | 40 µM | 35.6 µM | > 100 µM | 31.2 µM | 98.9 µM | 57 µM | > 100 µM | > 100 µM | > 100 µM | 38.9 µM | > 100 µM | 27.7 µM | 91.6 µM

From PubChem BioAssay (NCI)
